# Target: T1, human NaV1.6 (hNaV1.6) (Homo sapiens, UniProt Q9UQD0)
# T1 construct: expressed in transfected cells; host or cells: HEK-293
# Assay: Modulation of late sodium current (INaL), PatchXpress electrophysiology, HEK-293 cells expressing hNaV1.6
# Format: cell-based
# Details: HEK293, late current evoked by 300 nM ATX-II, read-out: NaV 1.6 Assay Data: percent inhibition of INaL at hNaV1.6
# Protocol: Functional characterization of exemplary compounds to modulate INaL expressed by the NaV1.6 voltage-gated sodium channel was accomplished using the PatchXpress™ high throughput electrophysiology platform (Molecular Devices, Sunnyvale, Calif.). HEK-293 cells expressing recombinant, human NaV1.6 (hNaV1.6) were grown in DMEM/high-glucose Dulbecco's modified, 10% FBS, 2 mM sodium pyruvate, 10 mM HEPES and 400 μg/mL G418. Cells were grown to 50%-80% confluency prior to harvesting. Trypsinized cells were washed, allowed to recover for 1 hour and then resuspended in extracellular recording solution at a concentration of 1×10^6 cells/ml. The onboard liquid handling facility of the PatchXpress was used for dispensing cells and applying test compounds. NaV late currents were evoked by the application of 300 nM ATX-II. INaL was evoked by depolarizing pulses to 0 mV for 200 ms from a non-inactivating holding potential (e.g., −120 mV) at a frequency of 0.1 Hz. INaL amplitude and stability were determined by analyzing the mean current amplitude over the final 20 ms of the test pulse. Following steady state block with exemplary compounds (e.g., as described herein), a Na+ free solution containing an impermeant cation (e.g., Choline or NDMG) was added to confirm the identify of the sodium current. Percent steady-state inhibition of INaL was calculated as: [(INaL_compound)/(INaL_control)]*100, where INaL_compound and INaL_control represent INaL recorded in the presence or absence of compound, respectively.
# T1 sequence (Q9UQD0 whole entry): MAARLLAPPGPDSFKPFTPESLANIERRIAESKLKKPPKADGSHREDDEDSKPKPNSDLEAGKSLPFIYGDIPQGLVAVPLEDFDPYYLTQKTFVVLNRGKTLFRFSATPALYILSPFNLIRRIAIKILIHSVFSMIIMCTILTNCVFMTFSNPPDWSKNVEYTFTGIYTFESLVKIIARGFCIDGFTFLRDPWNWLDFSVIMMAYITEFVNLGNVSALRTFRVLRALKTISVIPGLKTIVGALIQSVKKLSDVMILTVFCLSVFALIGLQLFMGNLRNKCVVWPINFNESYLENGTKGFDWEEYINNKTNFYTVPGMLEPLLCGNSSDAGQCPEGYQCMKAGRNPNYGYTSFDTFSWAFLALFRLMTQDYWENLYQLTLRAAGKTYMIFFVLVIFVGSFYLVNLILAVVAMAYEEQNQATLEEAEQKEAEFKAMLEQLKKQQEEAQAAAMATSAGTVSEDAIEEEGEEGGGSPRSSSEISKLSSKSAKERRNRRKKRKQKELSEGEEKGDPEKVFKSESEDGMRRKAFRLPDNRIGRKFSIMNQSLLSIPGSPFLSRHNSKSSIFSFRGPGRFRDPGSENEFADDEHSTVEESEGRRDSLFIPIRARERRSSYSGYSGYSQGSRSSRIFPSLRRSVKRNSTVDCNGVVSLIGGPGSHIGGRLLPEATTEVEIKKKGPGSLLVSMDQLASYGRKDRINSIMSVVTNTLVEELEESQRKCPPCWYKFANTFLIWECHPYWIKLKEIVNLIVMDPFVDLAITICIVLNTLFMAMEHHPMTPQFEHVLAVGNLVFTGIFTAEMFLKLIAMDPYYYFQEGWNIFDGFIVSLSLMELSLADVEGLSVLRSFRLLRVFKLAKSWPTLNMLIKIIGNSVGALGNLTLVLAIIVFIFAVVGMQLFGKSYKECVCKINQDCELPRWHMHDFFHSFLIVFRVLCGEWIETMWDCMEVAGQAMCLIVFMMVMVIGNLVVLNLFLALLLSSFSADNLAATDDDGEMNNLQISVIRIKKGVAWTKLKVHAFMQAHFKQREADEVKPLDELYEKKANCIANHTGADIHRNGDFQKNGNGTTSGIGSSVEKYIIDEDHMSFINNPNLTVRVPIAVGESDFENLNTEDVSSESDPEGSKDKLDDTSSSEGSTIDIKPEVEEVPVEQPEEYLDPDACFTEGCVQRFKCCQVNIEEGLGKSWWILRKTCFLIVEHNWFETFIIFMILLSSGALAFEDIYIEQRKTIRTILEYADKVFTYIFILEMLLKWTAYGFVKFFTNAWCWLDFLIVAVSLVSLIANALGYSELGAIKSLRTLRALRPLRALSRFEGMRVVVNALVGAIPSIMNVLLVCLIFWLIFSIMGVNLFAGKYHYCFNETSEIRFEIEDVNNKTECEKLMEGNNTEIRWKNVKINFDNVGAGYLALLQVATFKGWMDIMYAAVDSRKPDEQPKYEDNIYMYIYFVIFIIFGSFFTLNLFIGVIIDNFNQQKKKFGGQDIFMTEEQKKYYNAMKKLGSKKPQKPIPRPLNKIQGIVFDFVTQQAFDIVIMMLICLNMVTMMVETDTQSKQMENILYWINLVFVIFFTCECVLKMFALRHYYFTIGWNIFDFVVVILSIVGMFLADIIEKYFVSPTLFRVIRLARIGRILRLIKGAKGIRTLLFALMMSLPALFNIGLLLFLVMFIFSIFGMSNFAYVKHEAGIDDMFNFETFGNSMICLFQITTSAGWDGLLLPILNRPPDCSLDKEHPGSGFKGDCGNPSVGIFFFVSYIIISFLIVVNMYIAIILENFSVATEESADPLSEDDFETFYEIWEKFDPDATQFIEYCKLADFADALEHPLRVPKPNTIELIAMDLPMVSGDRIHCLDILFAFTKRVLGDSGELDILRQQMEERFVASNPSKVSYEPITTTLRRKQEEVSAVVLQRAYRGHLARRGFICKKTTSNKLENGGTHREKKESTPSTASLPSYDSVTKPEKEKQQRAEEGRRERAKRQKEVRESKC
row,Compound,inhibition at 1 µM [%]
1,"CCOC(F)(F)c1nnc2cnc(-c3cnc(OC4CC(F)(F)C4)c(F)c3)cn12 [Compound 77, 6-(6-(3,3-difluorocyclobutoxy)-5-fluoropyridin-3-yl)-3-(ethoxydifluoromethyl)-[1,2,4]triazolo[4,3-a]pyrazine]",> 70
2,"FC1(F)CC(Oc2ccc(-c3cn4c(C(F)(F)OC5CC5)nnc4cn3)cn2)C1 [Compound 78, 3-(cyclopropoxydifluoromethyl)-6-(6-(3,3-difluorocyclobutoxy)pyridin-3-yl)-[1,2,4]triazolo[4,3-a]pyrazine]",> 70
3,"COC(F)(F)c1nnc2ccc(-c3cnc(OC4(C(F)(F)F)CCC4)c(F)c3)nn12 [Compound 17, 3-[difluoro(methoxy)methyl]-6-[5-fluoro-6-[1-(trifluoromethyl)cyclobutoxy]-3-pyridyl]-[1,2,4]triazolo[4,3-b]pyridazine]",> 70
4,"CCOC(F)(F)c1nnc2cnc(-c3ccc(OC(C)(C)C(F)(F)F)nc3)cn12 [Compound 88, 3-(ethoxydifluoromethyl)-6-(6-((1,1,1-trifluoro-2-methylpropan-2-yl)oxy)pyridin-3-yl)-[1,2,4]triazolo[4,3-a]pyrazine]",> 70
5,"CC(C)COC(F)(F)c1nnc2ccc(-c3cnc(OCC(F)(F)F)c(F)c3)cn12 [Compound 2, 3-[difluoro(isobutoxy)methyl]-6-[5-fluoro-6-(2,2,2-trifluoroethoxy)-3-pyridyl]-[1,2,4]triazolo[4,3-a]pyridine]",> 70
6,"COCc1nnc2ccc(-c3cnc(OCC(F)(F)F)c(F)c3)nn12 [Compound 35, 6-[5-fluoro-6-(2,2,2-trifluoroethoxy)-3-pyridyl]-3-(methoxymethyl)-[1,2,4]triazolo[4,3-b]pyridazine]",< 30
7,"CC(C)COC(F)(F)c1nnc2ccc(-c3cnc(O[C@H](C)C(F)(F)F)c(F)c3)nn12 [Compound 49, 3-[difluoro(isobutoxy)methyl]-6-[5-fluoro-6-[(1R)-2,2,2-trifluoro-1-methyl-ethoxy]-3-pyridyl]-[1,2,4]triazolo[4,3-b]pyridazine]",> 70
8,"CC(C)COC(F)(F)c1nnc2ccc(-c3cnc(O[C@@H](C)C(F)(F)F)c(F)c3)cn12 [Compound 22, 3-[difluoro(isobutoxy)methyl]-6-[5-fluoro-6-[(1S)-2,2,2-trifluoro-1-methyl-ethoxy]-3-pyridyl]-[1,2,4]triazolo[4,3-a]pyridine]",> 70
9,"COCc1nnc2ccc(-c3cnc(OCC(F)(F)F)c(F)c3)cn12 [Compound 29, 6-[5-fluoro-6-(2,2,2-trifluoroethoxy)-3-pyridyl]-3-(methoxymethyl)-[1,2,4]triazolo[4,3-a]pyridine]",< 30
10,"COCc1nnc2cc(C)c(-c3cnc(O[C@@H](C)C(F)(F)F)c(F)c3)nn12 [Compound 70, 6-[5-fluoro-6-[(1S)-2,2,2-trifluoro-1-methyl-ethoxy]-3-pyridyl]-3-(methoxymethyl)-7-methyl-[1,2,4]triazolo[4,3-b]pyridazine]",< 30

# Other lines, results leading:
row,inhibition at 1 µM [%],Compound
1,30 to 70,"COCc1nnc2cnc(-c3cnc(O[C@@H](C)C(F)(F)F)c(F)c3)cn12 [Compound 38, 6-[5-fluoro-6-[(1S)-2,2,2-trifluoro-1-methyl-ethoxy]-3-pyridyl]-3-(methoxymethyl)-[1,2,4]triazolo[4,3-a]pyrazine]"
2,> 70,"Fc1cc(-c2cn3c(C(F)(F)OC4CC4)nnc3cn2)cnc1OCC(F)(F)F [Compound 75, 3-(cyclopropoxydifluoromethyl)-6-(5-fluoro-6-(2,2,2-trifluoroethoxy)pyridin-3-yl)-[1,2,4]triazolo[4,3-a]pyrazine]"
3,> 70,"COC(F)(F)c1nnc2ccc(-c3cnc(O[C@@H](C)C(F)(F)F)c(F)c3)cn12 [Compound 7, 3-[difluoro(methoxy)methyl]-6-[5-fluoro-6-[(1S)-2,2,2-trifluoro-1-methyl-ethoxy]-3-pyridyl]-[1,2,4]triazolo[4,3-a]pyridine]"
4,> 70,"COC(F)(F)c1nnc2cc(C)c(-c3cnc(O[C@H](C)C(F)(F)F)c(F)c3)nn12 [Compound 66, 3-[difluoro(methoxy)methyl]-6-[5-fluoro-6-[(1R)-2,2,2-trifluoro-1-methyl-ethoxy]-3-pyridyl]-7-methyl-[1,2,4]triazolo[4,3-b]pyridazine]"
5,> 70,"COC(F)(F)c1nnc2cnc(-c3cnc(O[C@H](C)C(F)(F)F)c(F)c3)cn12 (racemic) [Compound 6A, 3-[difluoro(methoxy)methyl]-6-[5-fluoro-6-[rac-(1R)-2,2,2-trifluoro-1-methyl-ethoxy]-3-pyridyl]-[1,2,4]triazolo[4,3-a]pyrazine]"
6,< 30,"COCc1nnc2cnc(-c3cnc(OCC(F)(F)F)c(F)c3)cn12 [Compound 39, 6-[5-fluoro-6-(2,2,2-trifluoroethoxy)-3-pyridyl]-3-(methoxymethyl)-[1,2,4]triazolo[4,3-a]pyrazine]"
7,> 70,"CCOC(F)(F)c1nnc2cnc(-c3cnc(OCc4ccccc4)c(F)c3)cn12 [Compound 64, 6-(6-benzyloxy-5-fluoro-3-pyridyl)-3-[ethoxy(difluoro)methyl]-[1,2,4]triazolo[4,3-a]pyrazine]"
8,> 70,"C[C@H](Oc1ncc(-c2ccc3nnc(C(F)(F)OC4CC4)n3c2)cc1F)C(F)(F)F [Compound 37, 3-[cyclopropoxy(difluoro)methyl]-6-[5-fluoro-6-[(1S)-2,2,2-trifluoro-1-methyl-ethoxy]-3-pyridyl]-[1,2,4]triazolo[4,3-a]pyridine]"
9,> 70,"Fc1cc(-c2ccc3nnc(C(F)(F)OCC4CC4)n3c2)cnc1OCC(F)(F)F [Compound 1, 3-[cyclopropylmethoxy(difluoro)methyl]-6-[5-fluoro-6-(2,2,2-trifluoroethoxy)-3-pyridyl]-[1,2,4]triazolo[4,3-a]pyridine]"
10,> 70,"CCOC(F)(F)c1nnc2cnc(-c3cnc(O[C@H](C)C(F)(F)F)c(F)c3)cn12 [Compound 26, 3-[ethoxy(difluoro)methyl]-6-[5-fluoro-6-[(1R)-2,2,2-trifluoro-1-methyl-ethoxy]-3-pyridyl]-[1,2,4]triazolo[4,3-a]pyrazine]"
11,30 to 70,"COC(F)(F)c1nnc2cnc(-c3cnc(OCC(F)(F)F)c(F)c3)c(C)n12 [Compound 61, 3-[difluoro(methoxy)methyl]-6-[5-fluoro-6-(2,2,2-trifluoroethoxy)-3-pyridyl]-5-methyl-[1,2,4]triazolo[4,3-a]pyrazine]"
12,> 70,"COC(F)(F)c1nnc2ccc(-c3cnc(O[C@@H](C)C(F)(F)F)c(F)c3)nn12 [Compound 12, 3-[difluoro(methoxy)methyl]-6-[5-fluoro-6-[(1S)-2,2,2-trifluoro-1-methyl-ethoxy]-3-pyridyl]-[1,2,4]triazolo[4,3-b]pyridazine]"
13,> 70,"COC(F)(F)c1nnc2ccc(-c3cnc(O[C@H](C)C(F)(F)F)c(F)c3)nn12 [Compound 13, 3-[difluoro(methoxy)methyl]-6-[5-fluoro-6-[(1R)-2,2,2-trifluoro-1-methyl-ethoxy]-3-pyridyl]-[1,2,4]triazolo[4,3-b]pyridazine]"
14,> 70,"COC(F)(F)c1nnc2ccc(-c3cnc(OC(C)(C)C(F)(F)F)c(F)c3)cn12 [Compound 24, 3-[difluoro(methoxy)methyl]-6-[5-fluoro-6-(2,2,2-trifluoro-1,1-dimethyl-ethoxy)-3-pyridyl]-[1,2,4]triazolo[4,3-a]pyridine]"
